Holding throughout (type): functional
The subject of assay [1] is P388. Put plainly: Growth inhibition of mouse P388 cells. To be noted: for EC50: read-out: ED50 (the source's name).
Assay [2] relates to MCF7. The assay can be described thus: Growth inhibition of human MCF7 cells.
Assay [3] deals with NCI-H460. The assay can be described thus: Growth inhibition of human NCI-H460 cells.
The test system of assay [4] is KM-20L2. The assay can be described thus: Growth inhibition of human KM20L2 cells.
Assay [5] has as its system BXPC-3. Put plainly: Growth inhibition of human BXPC3 cells.
Assay [6] has as its system DU-145. Put plainly: Growth inhibition of human DU145 cells.
The nature of assay [7]: Growth inhibition of human SF269 cells.

Drawing on ChEMBL document CHEMBL1157215, “Isolation and structural modification of 7-deoxynarciclasine and 7-deoxy-trans-dihydronarciclasine” (2006), this text covers EC50, GI50 and GI for 19 compounds.

In brackets after ≈: the same amount, converted by molar mass.

As usually defined, the GI50 is the concentration giving 50% growth inhibition. Read a high GI50 as less potent growth inhibition.

In the case of `O=C1N[C@H]2[C@H](O)[C@H](O)[C@@H](O)C[C@@H]2c2cc3c(cc21)OCO3`, the EC50 in assay [1] is below 0.01 µg/mL. Further, the GI50 in assay [2] turned out to be 0.03 µg/mL (≈ 0.102 µM); in assay [3], 0.037 µg/mL (≈ 0.126 µM); in assay [4], 0.028 µg/mL (≈ 0.0955 µM); in assay [6], 0.025 µg/mL (≈ 0.0852 µM); in assay [7] it was 0.03 µg/mL (≈ 0.102 µM). For the same compound, in assay [5], the GI turned out to be 0.036 µg/mL.
Regarding `O=C1N[C@@H]2C(=C[C@H](O)[C@@H](O)[C@H]2O)c2cc3c(cc21)OCO3`, the EC50 in assay [1] is below 0.01 µg/mL. For the same compound, the GI50 in assay [2] worked out at 0.093 µg/mL (≈ 0.319 µM); in assay [3] it was 0.11 µg/mL (≈ 0.378 µM); in assay [4] it was 0.15 µg/mL (≈ 0.515 µM); in assay [6] it was 0.062 µg/mL (≈ 0.213 µM); in assay [7] it was 0.047 µg/mL (≈ 0.161 µM). This compound also displayed a GI in assay [5] of 0.12 µg/mL.
Turning to `Cl.O[C@@H]1[C@H](O)[C@@H](O)C[C@@H]2c3cc4c(cc3CN[C@@H]12)OCO4`, the EC50 in assay [1] amounted to 3.3 µg/mL. In addition, the GI50 worked out at 1.7 µg/mL in assay [2]; 0.78 µg/mL in assay [3]; 1.7 µg/mL in assay [4]; 0.71 µg/mL in assay [6]; 1.6 µg/mL in assay [7]. Besides, in assay [5], the GI is 1.4 µg/mL.
On to `O[C@@H]1[C@H](O)[C@@H](O)C[C@@H]2c3cc4c(cc3CN[C@@H]12)OCO4`, for which the EC50 in assay [1] worked out at 0.43 µg/mL (≈ 1.54 µM). Also, the GI50 is above 10 µg/mL in assay [2]; 7.5 µg/mL (≈ 26.9 µM) in assay [3]; above 10 µg/mL in assay [4]; 4.4 µg/mL (≈ 15.8 µM) in assay [6]; above 10 µg/mL in assay [7]. In assay [5], this compound came in with a GI above 10 µg/mL.
As to `Cl.O[C@@H]1[C@H](O)[C@@H](O)C=C2c3cc4c(cc3CN[C@H]21)OCO4`, the EC50 in assay [1] worked out at 7.1 µg/mL. Further, the GI50 was 3.4 µg/mL in assay [2]; 3.4 µg/mL in assay [3]; above 10 µg/mL in assay [4]; 3.2 µg/mL in assay [6]; 2.9 µg/mL in assay [7]. In assay [5], this compound came in with a GI of 4.4 µg/mL.
Compound `CC1(C)O[C@@H]2[C@H](O1)[C@@H](O)C=C1c3cc4c(cc3C(=O)N[C@H]12)OCO4` showed a GI50 in assay [1] above 10 µg/mL.
As for `CC1(C)O[C@@H]2[C@H](O1)[C@@H](O[Si](C)(C)C(C)(C)C)C=C1c3cc4c(cc3C(=O)N[C@H]12)OCO4`, the GI50 in assay [1] was above 10 µg/mL.
Consider `CC1(C)O[C@H]2[C@@H]3NC(=O)c4cc5c(cc4[C@H]3C[C@H](O)[C@H]2O1)OCO5`, for which, in assay [1], the GI50 was above 10 µg/mL.
For the compound `CC(=O)O[C@H]1[C@@H]2NC(=O)c3cc4c(cc3[C@H]2C[C@H](OC(C)=O)[C@H]1OC(C)=O)OCO4`, the EC50 in assay [1] came out at 1.61 µg/mL (≈ 3.84 µM). The 50% growth inhibitory concentration (GI50) in assay [2] was found to be 0.46 µg/mL (≈ 1.1 µM); in assay [3], 1.5 µg/mL (≈ 3.58 µM); in assay [4] it was 0.66 µg/mL (≈ 1.57 µM); in assay [6] it was 0.46 µg/mL (≈ 1.1 µM); in assay [7], 0.3 µg/mL (≈ 0.715 µM). In assay [5], this compound returned a GI of 0.69 µg/mL.
`CC1(C)O[C@@H]2[C@H](O1)[C@@H](O)C=C1c3cc4c(cc3CN[C@H]12)OCO4` returned a GI50 in assay [1] above 10 µg/mL.
The compound `CC1(C)O[C@H]2[C@@H]3NCc4cc5c(cc4[C@H]3C[C@H](O[Si](C)(C)C(C)(C)C)[C@H]2O1)OCO5` showed a GI50 in assay [1] above 10 µg/mL.
Still for that read-out and setting: the figure for `CC1(C)O[C@H]2[C@@H]3NC(=O)c4cc5c(cc4[C@H]3C[C@H](O[Si](C)(C)C(C)(C)C)[C@H]2O1)OCO5` is above 10 µg/mL.
With `CC(=O)O[C@H]1C=C2c3cc4c(cc3C(=O)N[C@H]2[C@H](O)[C@@H]1O)OCO4`, in assay [1], the EC50 is below 0.01 µg/mL. The GI50 amounted to 0.24 µg/mL (≈ 0.72 µM) in assay [2]; 0.32 µg/mL (≈ 0.96 µM) in assay [3]; 0.18 µg/mL (≈ 0.54 µM) in assay [4]; 0.26 µg/mL (≈ 0.78 µM) in assay [6]; 0.19 µg/mL (≈ 0.57 µM) in assay [7]. Moreover, in assay [5], the GI was 0.26 µg/mL.
`CC1(C)O[C@H]2[C@@H]3NCc4cc5c(cc4[C@H]3C[C@H](O)[C@H]2O1)OCO5` showed a GI50 in assay [1] above 10 µg/mL.
In turn, `CC(=O)O[C@H]1C=C2c3cc4c(cc3C(=O)N[C@H]2[C@@H]2OC(C)(C)O[C@@H]21)OCO4` returned a concentration for 50% growth inhibition (GI50) in assay [1] above 10 µg/mL.
`CC1(C)O[C@@H]2[C@H](O1)[C@@H](O[Si](C)(C)C(C)(C)C)C=C1c3cc4c(cc3CN[C@H]12)OCO4` gave a GI50 in assay [1] above 10 µg/mL.
With `CC(=O)O[C@@H]1[C@H](OC(C)=O)[C@@H](OC(C)=O)C=C2c3cc4c(cc3C(=O)N[C@H]21)OCO4` [LYCORICIDINE TRIACETATE], in assay [1], the EC50 turned out to be 0.158 µg/mL. In addition, the GI50 in assay [2] was determined as 0.59 µg/mL; in assay [3], 1.2 µg/mL; in assay [4], 0.18 µg/mL; in assay [6], 0.48 µg/mL; in assay [7], 0.15 µg/mL. Also, in assay [5], the GI was determined as 0.2 µg/mL.
Take `O=C1N[C@@H]2C(=C[C@H](O)[C@@H](O)[C@H]2O)c2cc3c(c(O)c21)OCO3` [NARCICLASINE]: the EC50 in assay [1] was 0.002 µg/mL (≈ 0.00651 µM). In addition, the concentration for 50% growth inhibition (GI50) in assay [2] came out at 0.019 µg/mL (≈ 0.0618 µM); in assay [3], 0.032 µg/mL (≈ 0.104 µM); in assay [4] it was 0.21 µg/mL (≈ 0.683 µM); in assay [6] it was 0.011 µg/mL (≈ 0.0358 µM); in assay [7], 0.021 µg/mL (≈ 0.0683 µM). In addition, in assay [5], the GI came to 0.026 µg/mL.
Take `O=C1N[C@H]2[C@H](O)[C@H](O)[C@@H](O)[C@H](O)[C@@H]2c2cc3c(c(O)c21)OCO3` [PANCRATISTATIN]: the EC50 in assay [1] amounted to 0.039 µg/mL (≈ 0.12 µM). Also, the GI50 was determined as 0.032 µg/mL (≈ 0.0984 µM) in assay [2]; 0.048 µg/mL (≈ 0.148 µM) in assay [3]; 0.026 µg/mL (≈ 0.0799 µM) in assay [4]; 0.016 µg/mL (≈ 0.0492 µM) in assay [6]; 0.017 µg/mL (≈ 0.0523 µM) in assay [7]. The compound further came in with a GI in assay [5] of 0.028 µg/mL.
